2 compounds from US11124483B2, “HER3 ligands and uses thereof” (THE REGENTS OF THE UNIVERSITY OF CALIFORNIA, priority 2015, dated 2021) can be followed below.

One test deals with Src kinase (UniProt P00523). The experiment in a line: In vitro Src kinase assay (30-min). To be noted: percent activity vs. DMSO control. The class given is biochemical. The procedure:
In vitro Kinase Assays. In vitro kinase assays with the HER2 kinase domain (SignalChem) were performed in triplicate as follows. To 9 μL of a 2.5× solution of kinase and substrate in reaction buffer was added 3 μL of a 5×DMSO or inhibitor dilution in 10% DMSO:water. The inhibitor/kinase solution was incubated at room temperature for 10 minutes. The kinase assay was initiated by the addition of 3 μL of a 5× solution of ATP, and ran for 15 minutes. The final reaction conditions were 50 mM Tris (pH7.4), 5 mM MnCl2, 0.01% Tween-20, 2 mM DTT, 100 μM E4Y substrate (SignalChem), 15 nM HER2, 2% DMSO, 50 μM ATP, and 1 μCi γ^32P-ATP. After 15 minutes, 3 μL of each reaction was pipetted onto phosphocellulose sheets (P81, Whatman) and allowed to dry. The sheets were then washed 4×5 min with a solution of 0.5% phosphoric acid, dried, and exposed to a phosphor screen overnight. Src Kinase assays were conducted as previously described^2. Phosphorimaging was conducted on a Typhoon 9500, image intensities were quantified in ImageQuant 5.2, normalized to the DMSO control and plotted in GraphPad Prism 6.

Another test addresses T1, HER3 TKD (Homo sapiens, UniProt P21860).
T1 construct: made in house
T1 sequence (P21860 709-966 limits assumed): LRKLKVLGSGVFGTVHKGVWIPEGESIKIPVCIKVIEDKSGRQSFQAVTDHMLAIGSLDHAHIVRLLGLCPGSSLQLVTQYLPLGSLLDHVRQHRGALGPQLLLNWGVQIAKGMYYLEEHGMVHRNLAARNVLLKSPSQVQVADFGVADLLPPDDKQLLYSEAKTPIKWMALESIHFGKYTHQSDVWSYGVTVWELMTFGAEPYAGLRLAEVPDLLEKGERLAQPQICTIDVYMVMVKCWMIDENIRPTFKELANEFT
The experiment in a line: HER3 TKD Thermofluor assay. The class given is binding. To be noted: 20 μM inhibitor, 2 μM kinase, vs DMSO. Here is the method:
HER3 Thermofluor Assay. Wt HER3 TKD was purified according to the previously published protocol^1. Thermofluor reactions were performed in duplicate and set up as follows. 1 μL of an inhibitor or DMSO dilution in 40% DMSO:water was added to 19 μL of the HER3 kinase domain in reaction buffer. The final reaction solution contained 100 mM MOPS, 200 mM NaCl, 5% glycerol, 5 mM MgCl2, 0.1 mM DTT, 5×SYPRO Orange, 2 μM kinase, 2% DMSO and 20 μM inhibitor in the wells of a 96-well, low profile, white, PCR plate (USA scientific). The solution was pipetted up and down to mix, sealed with TempAssure clear PCR flat caps (USA Scientific), centrifuged at 500×g for 30 s, and heated in a Stratagene Mx3005P RT-PCR machine from 25° C. to 95° C. in 0.5° C. increments every 30 s after an initial incubation at 25° C. for 10 min. Fluorescence was measured at the end of each 30 s period with an excitation wavelength of 492 nm and an emission wavelength of 610 nm. To obtain the melting temperature, fluorescent signals were normalized to the maximum fluorescent signal for that well. Values after the well had reached a maximum signal were discarded and the signals were fit to the Boltzmann equation in Graphpad Prism 6. ΔTm was calculated as the difference in melting temperature between the compound-treated kinase compared to the DMSO control.
(In DSF a fluorescence change marks the thermal transition of the protein.)

By IC50 is commonly meant the concentration needed to halve the response being measured. Read a high IC50 as weaker potency. In turn, `COc1cc2ncc(C#N)c(Nc3ccc(Oc4cccc(NC(=O)Nc5cccc(C(F)(F)F)c5)c4)cc3)c2cc1OC` [50A, 1-(3-(4-((3-cyano-6,7-dimethoxyquinolin-4-yl)amino)phenoxy)phenyl)-3-(3-(trifluoromethyl)phenyl)urea] displayed an IC50 at Src kinase of 3.3 nM. Besides, on HER3 TKD, the “binding to HER3 TKD (percent unfolded protein vs. temperature)” value is on record as “particularly tight binding”.
With `COc1cc(Nc2c(C#N)cnc3cc(OCCCN4CCN(C)CC4)c(OC)cc23)c(Cl)cc1Cl` [bosutinib, reference compound], the half-maximal inhibitory concentration (IC50) against Src kinase turned out to be 3.3 nM.
